Measured values from paper PMC6429262, “Design and Synthesis of Novel Anti-Proliferative Emodin Derivatives and Studies on their Cell Cycle Arrest, Apoptosis Pathway and Migration” (Molecules, 2019).

Legend:
Format in all cases: cell-based, human
[1] = tested on: MCF-7 cells; assay: CellTiter-Glo Luminescent Cell Viability Assay, MCF-7; settings: for IC50: MCF-7 cells, 48 h, mean of three independent experiments
Description: The in vitro anti-proliferative activities of all the novel synthesized compounds were evaluated against HepG2 cells and MCF-7 cells by CellTiter-Glo® Luminescent Cell Viability Assay, using paclitaxel (a clinically used drug) as a positive control. Emodin (1) and compound 2 were also included for comparison.
HepG2 cells and MCF-7 cells were purchased from American Type Culture Collection (ATCC, Manassas, VA, USA). Cells were cultured in T75 flask (430641, Corning, New York, NY, USA), supplemented with high-glucose DMEM medium (Dulbecco’s modified Eagle’s medium, 11965-092, Gibco, New York, NY, USA) containing 10% Fetal bovine serum (FBS) and 1% penicillin (100 units/mL)-streptomycin (100 µg/mL) in a humidified incubator at 37 °C under 5% CO2 and 95% relative humidity (RH) atmosphere. The cells were harvested for metabolomics experiments using cell scrapers.
HepG2 cells and MCF-7 cells in 40 µL DMEM supplemented with 10% FBS were seeded at a density of 500 cells/well in 384-well cell culture plate (3570, Corning), respectively. After 24 h, the medium was substituted with fresh medium containing various sample solutions in DMSO (0.5%, v/v) at a dose range of 0.14–100 µM with 3-fold serial dilutions, and cells were cultured for another 48 h. Cells were cultured in medium without samples but 0.5% DMSO served as a control. All measurements were determined in triplicate for each treatment. After the sample treatment for 48 h, 20 µL CellTiter-Glo (G7573, Promega, Fitchburg, WI, USA) was added to each well containing cells and the contents were mixed for 2 min on an orbital shaker to induce cell lysis. The plates were then incubated at room temperature for 20 min to stabilize the luminescent signal. The luminescence was recorded on an Envision 2014 (Perkin Elmer, Waltham, MA, UAS). The IC50 values represented the samples’ concentrations required to inhibit 50% of cell proliferation and were calculated from a calibration curve by linear regression using GraphPad Prism 7.0 software (GraphPad Software, San Diego, CA, USA).

[2] = tested on: Bax; assay: Western blot, Bax; settings: 48 h
Description: (§1) Total cell lysates from cultured HepG2 cells treated with different concentrations of compound 7a for 48 h were obtained by lysing the cells in ice-cold RIPA buffer (1 PBS, 1% NP-40, 0.5% sodium deoxycholate and 0.1% SDS) containing […] PMSF, 5 mg/mL aprotinin, 5 mg/mL leupeptin, 5 mg/mL pepstatin and […] NaF. After centrifugation at 12,000 rpm for 10 min, the protein in the supernatant was quantified by the Bradford method (BIO-RAD, Hercules, CA, USA) using a Multimode Varioscan instrument (Thermo Fischer Scientific, Waltham, MA, USA). Twenty micrograms of protein per lane was applied in 12% SDS polyacrylamide gel. After electrophoresis, the protein was transferred to a polyvinylidine difluoride membrane (Amersham Biosciences, Marlborough, MA, USA). The membrane was blocked at room temperature for 2 h in TBST containing 5% blocking powder (Santa Cruz, Dallas, TX, USA). The membrane was washed with TBST for 5 min, and the primary antibody was added and incubated at 4 °C overnight (O/N). Bax (5023, CST, Danvers, MA, USA), Bcl-2 (15071, CST), cytochrome c (4280, CST), procaspase-9 (AB138412, Abcam, Cambridge, MA, USA), procaspase-3 (AB32150, Abcam), caspase-3 (66470-2-lg, Proteintech Group, Rosemont, IL, USA) and GAPDH (AB8245, Abcam) antibodies were employed. After three TBST washes, the membrane was incubated with the corresponding horseradish peroxidase-labeled secondary antibody (1:5000) (Santa Cruz) at room temperature for 2 h. Membranes were washed with TBST for 15 min five times and the protein blots were visualized with chemiluminescence reagent (Thermo Fischer Scientific Ltd.). The X-ray films were developed with a developer and fixed with fixer solution. The grey levels were analyzed using ImageQuant LAS 4000 system (GE, Marlborough, MA, USA).

[3] = tested on: procaspase-3; assay: Western blot, procaspase-3; settings: 48 h
Description: as §1

[4] = tested on: caspase-3; assay: Western blot, cleaved caspase-3; settings: 48 h
Description: as §1

[5] = tested on: HepG2 cells; assay: Cell cycle analysis, PI staining flow cytometry; set-up: Dip G1 (G1 phase cells) / Dip S (S phase cell population): dose or concentration left out as unconfirmed; settings: for Cell cycle distribution, G0/G1 / Cell cycle distribution, G2/M / Cell cycle distribution, S: mean ± SD of three experiments
Description: To further examine how compound 7a suppressed the growth of HepG2 cells, the effect of compound 7a on cell cycle distribution with different concentrations was investigated by flow cytometric analysis following staining the DNA with propidium iodide (PI).
The HepG2 cells were treated with indicated concentrations of compound 7a. After incubation for 48 h, cells were washed twice with ice-cold PBS, fixed and permeabilized with ice cold 70% ethanol at −20 °C overnight. The cells were treated with 100 μg/mL RNase A at 37 °C for 30min, then washed with ice-cold PBS and finally stained with 1mg/mL PI in the dark at 4 °C for 30 min. The cellular DNA content for the cell cycle distribution analysis was performed with the system software (CellQuest; BD Biosciences), plotting at least 30,000 events per sample. The percentage of cells in the G1, S and G2 phases of the cell cycle were determined using the ModFit LT version 5.0 software package (Verity Software, Topsham, ME, USA).

[6] = HepG2, 48 h, representative plot

- IC50 ([1]; Homo sapiens, MCF7, 48 h): 5.92 ± 0.36 µM
- IC50 [1]: 6.47 ± 0.18 µM
Structure (SMILES): Cc1cc(O)c2c(c1)C(=O)c1cc(OCCCOC(=O)[C@@H](C)N)cc(O)c1C2=O.O=C(O)C(F)(F)F [Compound 7a, (R)-1-(3-(4,5-Dihydroxy-7-methyl-9,10-dioxo-9,10-dihydroanthracen-2-yloxy)propoxy)-1-oxopropan-2-aminium 2,2,2-trifluoroacetate]
- Selectivity Index MCF-7 ([1]; IC50 on normal cells (L02)/IC50 on cancer cells (MCF-7)): 2.36
- Relative expression level, Bax ([2]; HepG2, 2.5 μM): 1.180 ± 0.046
- Relative expression level, Bax ([2]; HepG2, 5 μM): 1.347 ± 0.081
- Relative expression level, Bax ([2]; HepG2, 10 μM): 1.593 ± 0.112
- Relative expression level, Full length procaspase-3 ([3]; HepG2, 2.5 μM): 0.78 ± 0.012
- Relative expression level, procaspase-3 ([3]; HepG2, 2.5 μM): 0.510 ± 0.132
- Relative expression level, Full length procaspase-3 ([3]; HepG2, 5 μM): 0.220 ± 0.019
- Relative expression level, procaspase-3 ([3]; HepG2, 5 μM): 0.317 ± 0.031
- Relative expression level, Full length procaspase-3 ([3]; HepG2, 10 μM): 0.152 ± 0.009
- Relative expression level, procaspase-3 ([3]; HepG2, 10 μM): 0.170 ± 0.053
- Relative expression level, Cleaved Caspase-3 ([4]; HepG2, 2.5 μM): 0.056 ± 0.011
- Relative expression level, Cleaved Caspase-3 ([4]; HepG2, 5 μM): 0.143 ± 0.013
- Relative expression level, Cleaved Caspase-3 ([4]; HepG2, 10 μM): 0.185 ± 0.026
- Cell cycle distribution, G0/G1 ([5]; HepG2, 0.25 μM): 44.18 ± 1.79%
- Cell cycle distribution, G2/M ([5]; HepG2, 0.25 μM): 17.55 ± 0.90%
- Cell cycle distribution, S ([5]; HepG2, 0.25 μM): 38.25 ± 1.65%
- Cell cycle distribution, G0/G1 ([5]; HepG2, 0.5 μM): 56.49 ± 1.40%
- Cell cycle distribution, G2/M ([5]; HepG2, 0.5 μM): 24.81 ± 1.79%
- Cell cycle distribution, S ([5]; HepG2, 0.5 μM): 19.21 ± 1.33%
- Cell cycle distribution, G0/G1 ([5]; HepG2, 1 μM): 63.96 ± 2.42%
- Cell cycle distribution, G2/M ([5]; HepG2, 1 μM): 22.22 ±1.16%
- Cell cycle distribution, S ([5]; HepG2, 1 μM): 14.52 ± 1.43%
- Dip G1 (G1 phase cells) [5, 6]: 63.37%
- Dip S (S phase cell population) [5, 6]: 14.60%
